Results as given in patent US9265795B2, “Cellular compositions for use in therapy” (RENEURON LIMITED, priority 2008, dated 2016).

Test system: neural stem cell line, CTX0E03
Assay: Hypothermic / ambient shelf-life viability studies (trypan blue exclusion)
Format: cell-based, human
Conditions: in saline solution at ambient temperature
Description: Cultures of cells were expanded in T-flasks until 70 to 90% confluent. The spent medium was aspirated and then the cell monolayer washed with HBSS without magnesium or calcium ions (Invitrogen). The wash was aspirated and then the cells dissociated with recombinant bovine trypsin (Lonza TrypZean/EDTA) for 5 minutes at 37° C. The dissociated cell suspension was mixed with a trypsin inhibitor solution (0.55 mg/ml soybean trypsin inhibitor [Sigma], 1% HSA [Grifols], 25 U/ml benzon nuclease [VWR] in DMEM:F12 [Invitrogen]) and centrifuged for 5 minutes at ˜500×g. The supernatant was aspirated and the cell pellet washed in 50% HypoThermosol®-FRS (BioLife Solutions, Inc) in DMEM:F12 followed by centrifugation at ˜500×g for 5 minutes. The cell pellet was then suspended in HypoThermosol®-FRS at a concentration of 40,000 to 60,000 cells/μl. […]
Shelf-life studies have assessed the viability of the therapeutic and commercially manufactured neural stem cell line, CTX0E03 (Pollock et al., 2006), formulated in saline or using the method described in this invention using HTS-FRS. […]
Samples of cells were mixed 1:1 with 0.4% Trypan blue (Sigma) and loaded onto a haemocytometer. […] The viability and concentration of the sample is determined by counting the cells within a grid of the haemocytometer using 10× objective phase-contrast microscopy.

Question: With Cc1c(C)c2c(c(C)c1O)CCC(C)(C(=O)O)O2 (stereo not shown) [Trolox] as the compound, how does the “time neural stem cells are preserved” value read?
Answer: 2 days
